Assay results: PubChem BioAssay (NCI)
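The concentration for 50% growth inhibition is given as GI50. TGI denotes the concentration required for complete inhibition of growth.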

Tests used:
Experiment in all cases: NCI-60 cell line screen, 384-well format
MCF7 breast = test system: MCF7 breast
SF-295 CNS = test system: SF-295 CNS
SF-539 CNS = test system: SF-539 CNS
NCI-H226 lung = test system: NCI-H226 lung
SN12C renal = test system: SN12C renal
KM12 colon = test system: KM12 colon
SK-MEL-28 melanoma = test system: SK-MEL-28 melanoma
HS 578T breast = test system: HS 578T breast
HOP-62 NSCLC = test system: HOP-62 NSCLC
SK-OV-3 ovarian = test system: SK-OV-3 ovarian
SNB-19 CNS = test system: SNB-19 CNS
RPMI-8226 leukemia = test system: RPMI-8226 leukemia
HCC-2998 colon = test system: HCC-2998 colon
UACC-62 melanoma = test system: UACC-62 melanoma
IGROV1 ovarian = test system: IGROV1 ovarian
MDA-MB-468 breast = test system: MDA-MB-468 breast
EKVX NSCLC = test system: EKVX NSCLC
OVCAR-5 ovarian = test system: OVCAR-5 ovarian
SW-620 colon = test system: SW-620 colon
M14 melanoma = test system: M14 melanoma
CCRF-CEM leukemia = test system: CCRF-CEM leukemia
PC-3 prostate = test system: PC-3 prostate
HCT-15 colon = test system: HCT-15 colon
NCI/ADR-RES ovarian = test system: NCI/ADR-RES ovarian
MOLT-4 leukemia = test system: MOLT-4 leukemia
SK-MEL-2 melanoma = test system: SK-MEL-2 melanoma
HCT-116 colon = test system: HCT-116 colon
UACC-257 melanoma = test system: UACC-257 melanoma
NCI-H23 lung = test system: NCI-H23 lung
OVCAR-8 ovarian = test system: OVCAR-8 ovarian
SF-268 CNS = test system: SF-268 CNS
OVCAR-4 ovarian = test system: OVCAR-4 ovarian
SK-MEL-5 melanoma = test system: SK-MEL-5 melanoma
CAKI-1 renal = test system: CAKI-1 renal
A549 NSCLC = test system: A549 NSCLC
RXF 393 renal = test system: RXF 393 renal
MDA-MB-231 breast = test system: MDA-MB-231 breast
HT29 colon = test system: HT29 colon
T-47D breast = test system: T-47D breast
UO-31 renal = test system: UO-31 renal
K-562 leukemia = test system: K-562 leukemia
TK-10 renal = test system: TK-10 renal
SNB-75 CNS = test system: SNB-75 CNS
SR leukemia = test system: SR leukemia
NCI-H322M lung = test system: NCI-H322M lung
COLO 205 colon = test system: COLO 205 colon
MALME-3M melanoma = test system: MALME-3M melanoma
U251 glioblastoma = test system: U251 glioblastoma
NCI-H460 NSCLC = test system: NCI-H460 NSCLC
MDA-MB-435 melanoma = test system: MDA-MB-435 melanoma
786-0 renal = test system: 786-0 renal
OVCAR-3 ovarian = test system: OVCAR-3 ovarian
DU-145 prostate = test system: DU-145 prostate
LOX IMVI melanoma = test system: LOX IMVI melanoma
BT-549 breast = test system: BT-549 breast
HL-60(TB) leukemia = test system: HL-60(TB) leukemia
NCI-H522 lung = test system: NCI-H522 lung

How did the GI50 (MCF7 breast) turn out when C=CCn1c(=O)c2cnc(Nc3ccc(N4CCN(C)CC4)cc3)nc2n1-c1cccc(C(C)(C)O)n1 was run?
The GI50 was 216 nM.

What about the TGI (MCF7 breast) of the same compound?
The TGI was 11500 nM.

What about the GI50 (SF-295 CNS) of the same compound?
The GI50 was 357 nM.

And the TGI (SF-295 CNS)?
Its TGI is 2260 nM.

What about the GI50 (SF-539 CNS) of the same compound?
The GI50 was 51 nM.

And the TGI (SF-539 CNS)?
Its TGI is 178 nM.

What about the GI50 (NCI-H226 lung) of the same compound?
The GI50 was 1410 nM.

What about the TGI (NCI-H226 lung) of the same compound?
Its TGI is 9220 nM.

What about the GI50 (SN12C renal) of the same compound?
Its GI50 is 311 nM.

What about the TGI (SN12C renal) of the same compound?
Its TGI is 2270 nM.

What about the GI50 (KM12 colon) of the same compound?
Its GI50 is 218 nM.

And the TGI (KM12 colon)?
The TGI was 649 nM.

And the GI50 (SK-MEL-28 melanoma)?
Its GI50 is 3440 nM.

And the TGI (SK-MEL-28 melanoma)?
The TGI was 17100 nM.

What about the GI50 (HS 578T breast) of the same compound?
The GI50 was 154 nM.

What about the TGI (HS 578T breast) of the same compound?
Its TGI is 529 nM.

And the GI50 (HOP-62 NSCLC)?
The GI50 was 406 nM.

And the TGI (HOP-62 NSCLC)?
Its TGI is 2130 nM.

What about the GI50 (SK-OV-3 ovarian) of the same compound?
The GI50 was 76.6 nM.

What about the TGI (SK-OV-3 ovarian) of the same compound?
Its TGI is 1460 nM.

What about the GI50 (SNB-19 CNS) of the same compound?
The GI50 was 502 nM.

What about the TGI (SNB-19 CNS) of the same compound?
Its TGI is 15400 nM.

And the GI50 (RPMI-8226 leukemia)?
Its GI50 is 260 nM.

What about the TGI (RPMI-8226 leukemia) of the same compound?
The TGI was 1120 nM.

And the GI50 (HCC-2998 colon)?
The GI50 was 203 nM.

What about the TGI (HCC-2998 colon) of the same compound?
Its TGI is 555 nM.

What about the GI50 (UACC-62 melanoma) of the same compound?
Its GI50 is 354 nM.

And the TGI (UACC-62 melanoma)?
Its TGI is 12800 nM.

And the GI50 (IGROV1 ovarian)?
The GI50 was 173 nM.

And the TGI (IGROV1 ovarian)?
The TGI was 1090 nM.

And the GI50 (MDA-MB-468 breast)?
The GI50 was 220 nM.

What about the TGI (MDA-MB-468 breast) of the same compound?
Its TGI is 492 nM.

And the GI50 (EKVX NSCLC)?
Its GI50 is 560 nM.

What about the TGI (EKVX NSCLC) of the same compound?
The TGI was 4800 nM.

And the GI50 (OVCAR-5 ovarian)?
Its GI50 is 596 nM.

And the TGI (OVCAR-5 ovarian)?
Its TGI is 6100 nM.

What about the GI50 (SW-620 colon) of the same compound?
Its GI50 is 352 nM.

And the TGI (SW-620 colon)?
The TGI was 1930 nM.

What about the GI50 (M14 melanoma) of the same compound?
Its GI50 is 51.4 nM.

What about the TGI (M14 melanoma) of the same compound?
The TGI was 246 nM.

And the GI50 (CCRF-CEM leukemia)?
The GI50 was 69.9 nM.

What about the TGI (CCRF-CEM leukemia) of the same compound?
Its TGI is 197 nM.

And the GI50 (PC-3 prostate)?
The GI50 was 724 nM.

And the TGI (PC-3 prostate)?
Its TGI is 21000 nM.

What about the GI50 (HCT-15 colon) of the same compound?
Its GI50 is 326 nM.

And the TGI (HCT-15 colon)?
Its TGI is 1210 nM.

And the GI50 (NCI/ADR-RES ovarian)?
The GI50 was 1810 nM.

And the TGI (NCI/ADR-RES ovarian)?
The TGI was 4950 nM.

What about the GI50 (MOLT-4 leukemia) of the same compound?
Its GI50 is 29.9 nM.

What about the TGI (MOLT-4 leukemia) of the same compound?
The TGI was 103 nM.

What about the GI50 (SK-MEL-2 melanoma) of the same compound?
The GI50 was 160 nM.

And the TGI (SK-MEL-2 melanoma)?
Its TGI is 393 nM.

What about the GI50 (HCT-116 colon) of the same compound?
Its GI50 is 308 nM.

And the TGI (HCT-116 colon)?
The TGI was 2240 nM.

And the GI50 (UACC-257 melanoma)?
Its GI50 is 10000 nM.

What about the TGI (UACC-257 melanoma) of the same compound?
Its TGI is 21900 nM.

And the GI50 (NCI-H23 lung)?
Its GI50 is 94.5 nM.

And the TGI (NCI-H23 lung)?
Its TGI is 254 nM.

What about the GI50 (OVCAR-8 ovarian) of the same compound?
The GI50 was 219 nM.

What about the TGI (OVCAR-8 ovarian) of the same compound?
The TGI was 566 nM.

And the GI50 (SF-268 CNS)?
Its GI50 is 559 nM.

And the TGI (SF-268 CNS)?
Its TGI is 10700 nM.

And the GI50 (OVCAR-4 ovarian)?
The GI50 was 157 nM.

And the TGI (OVCAR-4 ovarian)?
Its TGI is 407 nM.

And the GI50 (SK-MEL-5 melanoma)?
Its GI50 is 187 nM.

What about the TGI (SK-MEL-5 melanoma) of the same compound?
Its TGI is 460 nM.

And the GI50 (CAKI-1 renal)?
Its GI50 is 72.3 nM.

What about the TGI (CAKI-1 renal) of the same compound?
Its TGI is 11200 nM.

What about the GI50 (A549 NSCLC) of the same compound?
The GI50 was 1020 nM.

What about the TGI (A549 NSCLC) of the same compound?
Its TGI is 12800 nM.

What about the GI50 (RXF 393 renal) of the same compound?
Its GI50 is 48.7 nM.

And the TGI (RXF 393 renal)?
The TGI was 196 nM.

And the GI50 (MDA-MB-231 breast)?
Its GI50 is 372 nM.

And the TGI (MDA-MB-231 breast)?
Its TGI is 7330 nM.

And the GI50 (HT29 colon)?
Its GI50 is 319 nM.

And the TGI (HT29 colon)?
The TGI was 15200 nM.

What about the GI50 (T-47D breast) of the same compound?
Its GI50 is 5880 nM.

And the TGI (T-47D breast)?
Its TGI is 28900 nM.

What about the GI50 (UO-31 renal) of the same compound?
Its GI50 is 274 nM.

And the TGI (UO-31 renal)?
The TGI was 1250 nM.

And the GI50 (K-562 leukemia)?
The GI50 was 175 nM.

What about the TGI (K-562 leukemia) of the same compound?
Its TGI is 347 nM.

What about the GI50 (TK-10 renal) of the same compound?
The GI50 was 171 nM.

What about the TGI (TK-10 renal) of the same compound?
The TGI was 700 nM.

And the GI50 (SNB-75 CNS)?
The GI50 was 1210 nM.

And the TGI (SNB-75 CNS)?
The TGI was 4350 nM.

And the GI50 (SR leukemia)?
The GI50 was 58.4 nM.

And the TGI (SR leukemia)?
The TGI was 184 nM.

And the GI50 (NCI-H322M lung)?
Its GI50 is 233 nM.

What about the TGI (NCI-H322M lung) of the same compound?
The TGI was 935 nM.

What about the GI50 (COLO 205 colon) of the same compound?
Its GI50 is 294 nM.

What about the TGI (COLO 205 colon) of the same compound?
Its TGI is 829 nM.

And the GI50 (MALME-3M melanoma)?
Its GI50 is 52.9 nM.

What about the TGI (MALME-3M melanoma) of the same compound?
The TGI was 342 nM.

What about the GI50 (U251 glioblastoma) of the same compound?
Its GI50 is 419 nM.

And the TGI (U251 glioblastoma)?
The TGI was 6770 nM.

And the GI50 (NCI-H460 NSCLC)?
Its GI50 is 574 nM.

And the TGI (NCI-H460 NSCLC)?
The TGI was 3420 nM.

And the GI50 (MDA-MB-435 melanoma)?
The GI50 was 201 nM.

What about the TGI (MDA-MB-435 melanoma) of the same compound?
Its TGI is 413 nM.

What about the GI50 ([…]-0 renal) of the same compound?
Its GI50 is 183 nM.

What about the TGI (786-0 renal) of the same compound?
The TGI was 414 nM.

And the GI50 (OVCAR-3 ovarian)?
Its GI50 is 130 nM.

And the TGI (OVCAR-3 ovarian)?
The TGI was 328 nM.

And the GI50 (DU-145 prostate)?
Its GI50 is 262 nM.

What about the TGI (DU-145 prostate) of the same compound?
Its TGI is 1810 nM.

And the GI50 (LOX IMVI melanoma)?
The GI50 was 626 nM.

What about the TGI (LOX IMVI melanoma) of the same compound?
Its TGI is 2710 nM.

And the GI50 (BT-549 breast)?
The GI50 was 115 nM.

What about the TGI (BT-549 breast) of the same compound?
The TGI was 299 nM.

What about the GI50 (HL-60(TB) leukemia) of the same compound?
The GI50 was 148 nM.

And the TGI (HL-60(TB) leukemia)?
The TGI was 284 nM.

And the GI50 (NCI-H522 lung)?
Its GI50 is 135 nM.

And the TGI (NCI-H522 lung)?
The TGI was 286 nM.
